Results from patent US20150125406A1, “TOPICAL SKIN CARE COMPOSITION” (JAFER LIMITED, priority 2012, published 2015).

Legend:
Assay type in all cases: cell-based
[1] = test system: B16 melanocytes; test: Melanin production/secretion in melanocytes, Study II; conditions: 20X dilution of dilute stock solutions; 72 hours
Procedure: (§1) Cells (B16 melanocytes) were plated in phenol-free Dulbecco's Modified Eagle's Medium (DMEM) supplemented with 5% fetal bovine serum (FBS) at 10,000 cells/well. After 24 hours, test material was added and the cells were incubated with the test material for 48 hours. The melanin was quantified by instrumentally measuring absorbance with a BIORAD microplate spectrophotometer 3550-UV at 490 nanometers. Cultures were also photographed (CANON REBEL digital camera). Statistical significance of the values was calculated using paired t-test and threshold statistical significance was fixed at p=0.05 and 15% difference as compare to the water control group. Cell numbers were measured using a sulforhodamine B method (described by Skehan et al, “New colorimetric cytotoxicity assay for anticancer-drug screening”, J. Natl Cancer Inst., 82:1107, 1990, the relevant disclosures of which are incorporated herein by reference). The colorimetric signal proportional to cell numbers was acquired with the microplate spectrophotometer 3550-UV at 550 nanometers.
Following the general procedure of Study I, a further set of dilute aqueous stock solutions was prepared containing each component individually (Compositions 6M-O in Table 10). […] For comparison, a dilute stock solution of hydroquinone (Composition 6Q) was included. A 20-fold (20×) dilution (distilled water) of each stock solution was selected for the in vitro test to minimize or avoid cytotoxicity of melanocytes in the cell growth medium.
Distilled water was used as the negative control. As a positive control for validating the test, a dilute stock solutions of kojic acid (0.2%, 0.04%) were prepared and a 20× dilution (0.01%, 0.002%) tested.
(§2) The methodology of Study I was repeated, except that the test was terminated after 72 hours for quantifying melanin pigmentation.

[2] = test system: B16 melanocytes; test: Cell numbers by sulforhodamine B method, Study I; conditions: 20X dilution of stock solutions; 48 hours incubation
Procedure: (§3) One set of aqueous stock solutions was prepared containing each component individually (as supplied) in an amount representing the active concentration present in a composition of Example 1-B (Compositions 6A-C in Table 9). A corresponding second and third set of stock solutions was prepared, respectively containing two-times (Compositions 6E-G in Table 9) and four-times (Compositions I-K in Table 9) the amount of the foregoing concentrations. Combinations of each component were prepared from the stock solutions of each component (Compositions. 6D, 6H, and 6L in Table 9) to provide amounts representing the weight ratio of each component to one another present (active basis) in a composition of Example 1-B as shown below in Notes 1-3 of Table 9. A 20-fold (20×) dilution (distilled water) of each stock solution was selected for the in vitro test to minimize or avoid cytotoxicity of melanocytes in the cell growth medium.
as §1

[3] = test system: B16 melanocytes; test: Melanin production/secretion in melanocytes, Study I; conditions: 48 hours incubation; for effect on pigmentation / inhibition of melanin production/secretion: 20X dilution of stock solutions
Procedure: This example illustrates the synergistic efficacy of the combination of the complexion modifying components (a) 4-hexylresorcinol, (b) niacinamide and (c) 1-amino-ethylphosphinic acid, compared to the effect of the individual components, based on an in vitro evaluation of melanin production/secretion in melanocytes. Components (a), (b) and (c) were evaluated individually and in combination with one another as described below in Studies I and II, and in Tables 9 and 10.
as §3
Component (c) as supplied is described in Note (a) to Table 2. As a positive control, stock solutions of kojic acid solutions were prepared at an active concentration of 2%, 0.5% and 0.1% to provide a concentration of 0.1%, 0.025% and 0.005%, respectively, at a 20× dilution. Distilled water was used as the negative control.
as §1

[4] = test system: B16 melanocytes; test: Cell numbers by sulforhodamine B method, Study II; conditions: 20X dilution of dilute stock solutions; 72 hours
Procedure: as §1
Following the general procedure of Study I, a further set of dilute aqueous stock solutions was prepared containing each component individually (Compositions 6M-O in Table 10). A stock solution containing a combinations of each component was prepared from the stock solutions of each component (Composition 6P in Table 10) to provide amounts representing the weight ratio of each component to one another present in a composition of Example 1-B as shown below in Note 1 to Table 10. For comparison, a dilute stock solution of hydroquinone (Composition 6Q) was included. A 20-fold (20×) dilution (distilled water) of each stock solution was selected for the in vitro test to minimize or avoid cytotoxicity of melanocytes in the cell growth medium.
as §2

Row | Structure (SMILES) | inhibitory effect on pigmentation [1] | effect on cell numbers / cytotoxicity [2] | effect on pigmentation / inhibition of melanin production/secretion [3] | effect on cell numbers / cytotoxicity [4] | inhibition of melanin production/secretion [1] | pigmentation expressed as % (water control 100%) ([3]; 20X dilution)
1 | CC(N)[PH](=O)O (stereo not shown) [1-amino-ethylphosphinic acid] | no inhibitory effect | no effect | no effect | no inhibitory effect |  | 
2 | CCCCCCc1ccc(O)cc1O [4-hexylresorcinol] |  | cytotoxic or cytostatic |  | cytotoxic |  | 
3 | NC(=O)c1cccnc1 [niacinamide] | no inhibitory effect | no effect | no effect | no inhibitory effect |  | 
4 | Oc1ccc(O)cc1 [hydroquinone] |  |  |  |  | ≥ 50% | 
5 | O=c1cc(CO)occ1O [kojic acid] |  | without significantly impacting cell proliferation | dose-dependent pigmentation-inhibitory effect | without significantly impacting cell proliferation | about 73% | 70-90%
